Measured values taken from patent publication US10556860B2, “hTERT modulators and methods of use” (Arizona Board of Regents on Behalf of the University of …, priority 2015, dated 2020).

Columns and labels:
Type in all cases: cell-based, human
[1] = system: hTERT core promoter (pGL3-WT); assay: Luciferase assay, pGL3-WT in MCF7 cells; settings: 24 h
Description: (§1) Luciferase assay. From gDNA extracted from HeLa cells, the hTERT core promoter region, including −350 bp to +12 from the transcription start site, was amplified using a pair of primers, including KpnI and NheI restriction sites, for cloning of pGL3-hTERT with WT promoter sequence. Mutant constructs were generated by PCR-based site-directed mutagenesis. The sequence of each construct was confirmed by sequencing analysis. MCF7 cells in 24-well plate were transfected with 200 ng of pGL3 construct and 5 ng of pRL-TK by Fugene® HD Transfection Reagent and then incubated for 6 h. Media were replaced by fresh ones and the cells were treated with GTC365 or BRACO-19. The same volume of DMSO served as a control. […]
(§2) Since MYC is a key transcription factor for activation of the hTERT gene by binding to an E-box in the hTERT promoter region and is one of the oncogenes having a G-quadruplex structure in the promoter region, it was important to confirm that GTC365 affects the repression of hTERT promoter activity directly by binding to the G-quadruplex structure formed in the hTERT promoter and not by binding to the G-quadruplex in the MYC promoter. To distinguish between these possibilities, the luciferase activity of the pGL3-WT and pGL3-E-box mutant constructs were determined after treatment with GTC365. […]

[2] = system: hTERT core promoter E-box Mut construct; assay: Luciferase assay, pGL3-E-box mutant in MCF7 cells; settings: 24 h
Description: as §1, §2

BCL2 mRNA = assay: qPCR of BCL2 mRNA in MCF7 cells; settings: 72 h
Description: (§3) qPCR. MCF7 and melanoma cells were treated with GTC365 and BRACO-19 for 72 h. Total RNA was extracted using an RNeasy mini-prep kit (Qiagen) and quantitated by measuring absorbance at 260 nm. cDNA was synthesized using a Takara PrimeScript™ RT Reagent Kit with gDNA eraser and then used as a template for qPCR. The qPCR was performed using Kapa Probe Fast qPCR Master Mix with ABI Taqman probes of hTERT (Hs00972656_m1), BCL2 (HS00608023_m1, FAM-labeled) or MYC (Hs00153408_m1), and GAPDH (Hs02758991_g1, VIC-labeled). The Ct values were measured by running Rotor-Gene Q, and the relative quantity of hTERT, BCL2, and MYC mRNA was obtained compared to GAPDH as an internal control.
(§4) BCL2 is a downstream molecule to hTERT such that BCL2 expression is activated by hTERT to repress apoptosis. To further define the effect of GTC365 on the transcription of hTERT, the relative mRNA levels of MYC and BCL2 were determined by quantitative PCR analysis in MCF7 cells after treatment with GTC365 for 72 h. […] A series of GTC260 analogs were synthesized and their effect on hTERT gene expression in MCF7A and U87 cells determined (FIG. 7). […] Therefore, GTC365 directly repressed the transcription of hTERT and then led to a downstream decrease of BCL2 expression.

MYC mRNA = assay: qPCR of MYC mRNA in MCF7 cells; settings: 72 h
Description: as §3, §4

[3] = system: telomere length in MCF7 cells; assay: Telomere length assay (qPCR) in MCF7 cells; settings: 0.5 μM
Description: Telomere length assay. MCF7 cells were treated with DMSO, GTC365 for 5-10 days, or BRACO-19 for 25-30 days. Meanwhile, cells were subcultured to maintain <90% confluent. Cells were collected by cell scraper and then subjected to gDNA extraction by DNA extraction kit (Qiagen). Ten ng of gDNA was used for SYBR Green I-based qPCR assay with 1 M betaine, 700 nM telomere primers, and 200 nM 36B4 single-copy gene. A pair of Tel1 and Tel2 was used for amplification of the telomere region and a pair of 36B4F and 36B4R for amplification of a single-copy gene to normalize data. The PCR was initiated at 95° C. for 3 min and then 27 cycles at 95° C. for 3 sec and 60° C. for 2 min. The fluorescence signal at 60° C. was acquired. Triplicate data was averaged and normalized to 36B4 to obtain ΔCt. The relative telomere length was determined compared to the DMSO.
hTERT-positive MCF7 breast cancer cell lines were used to gain mechanistic insight into how the GTC365-induced inhibition of proliferation occurs. Change in relative telomere length by GTC365 was measured by qPCR with gDNA extracted from GTC365-treated MCF7 cells. After 10 days of treatment GTC365 decreased telomere length in a dose-dependent manner, and at a dose of 0.5 μM, the telomere length was reduced by 20%. In contrast, BRACO-19 reduced telomere length by ˜12% at the same concentration but required 25-30 days of treatment (FIG. 9).

Row | Structure (SMILES) | luciferase activity [1] | luciferase activity [2] | effect on BCL2 mRNA level (BCL2 mRNA) | effect on MYC mRNA level (MYC mRNA) | reduction of telomere length ([3]; 25-30 days) | decrease of BCL2 mRNA level (BCL2 mRNA; 1 μM) | reduction of telomere length ([3]; 10 days)
1 | CN(C)c1ccc(Nc2c3ccc(NC(=O)CCN4CCCC4)cc3nc3cc(NC(=O)CCN4CCCC4)ccc23)cc1 [BRACO-19, reference compound] | decreased | failed to reduce | no significant effect | decreased | ~12% | – | –
2 | N=C(N)NCCCS(=O)(=O)Nc1ccc(Nc2c3ccccc3nc3cc([N+](=O)[O-])ccc23)cc1 [GTC365] | dose-dependent decrease | dose-dependent decrease | – | no significant change | – | up to 18% | 20%
